Results as given in patent US4978665A, “3(2H)pyridazinone, and antagonistic agent against SRS-A containing it” (Nissan Chemical Industries Ltd., priority 1987, dated 1990).

Key:
LTD4 = LTD4 antagonism in guinea-pig trachea (in vitro test); format: cell-based; settings: Cavia porcellus, 0.5 h, LTD4 2×10^-8 g/ml, isolated guinea-pig trachea; for inhibition at 1 µg/mL: 10^-6 g/ml test compound; for inhibition at 0.1 µg/mL: 10^-7 g/ml test compound, read-out: LTD4 Antagonism (%) (in parenthesis)
Procedure: (§1) SRS-A is a mixture of leukotriene C4 (hereinafter referred to as LTC4), leukotriene D4 (hereinafter referred to as LTD4), leukotriene E4 (hereinafter referred to as LTE4) and the like. Accordingly, antagonistic activities against SRS-A can be evaluated by one of the following two test methods:
LTD4 antagonism in guinea-pig trachea
Antagonism for LTD4 was determined in isolated male guinea-pig (300-400 g) trachea prepared as spiral strip. Tracheal preparations were suspended under 1 g tension in 10 ml organ baths containing 5 μM of indomethacin and they were incubated for 1 hr prior to use. Contractile responses to LTD4 (2×10^-8 g/ml) were obtained after the maximal response to histamine (10^- 4 M). Test compounds dissolved in 100% dimethyl sulfoxide were added to the organ baths (final concentration of 10^-6 g/ml or 10^-7 g/ml) 30 min prior to LTD4 addition, and then contractile responses to LTD4 were compared with those of control which was obtained from a paired trachea in the absence of test compounds. LTD4 -induced contractions were expressed as a percentage of the maximal response to histamine. The antagonism was determined as follows:
Antagonism (%)=(1.0 - % contraction in test/% contraction in control)×100
In parenthesis in Table 2, LTD4 antagonisms by test compounds at a concentration of 10^-7 g/ml are shown.

SRS-A = test: Effect on anaphylactic bronchoconstriction mediated by endogeneously liberated SRS-A in passively sensitized guinea-pig (in vivo test); settings: for Inhibition (%) of bronchoconstriction: 2 hrs before EA challenge; for inhibitory effects over the control (in words): oral administration, doses of Table 3, P<0.05
From the text: as §1
Effect on anaphylactic bronchoconstriction mediated by endogeneously liberated SRS-A in passively sensitized guinea-pig
Male guinea-pigs (350-450 g) were passively sensitized with intravenous (i.v.) injection of 0.125 ml rabbit anti-EA (egg albumin) serum (Capple Laboratories) 1 to 2 days preceding the experiment. Antigen-induced anaphylactic bronchoconstrictions mediated by endogeneously liberated SRS-A were measured by modified method of Konzett and Rossler (Arch. Exp. Path. Pharmak., 195, 71, 1940). Sensitized guinea-pigs were anaesthetized with intraperitoneal injection of urethane (1.5 g/kg). The right jugular vein was cannulated for the administration of the all agents and trachea was cannulated to record total pulmonary resistance. Guinea-pigs were artificially ventilated by a small animal respirator (Shinano, Model SN-480-7) set at a stroke volume of 4.5 ml and a rate of 50 breaths per min. The change in pulmonary resistance was measured with a pressure transducer (Nihon Kohden, Model TP-602T) connected to a T-tube on the tracheal cannula. The increase in air overflow volume was expressed as a percentage of the maximum bronchoconstriction obtained by clamping off the trachea. Following surgical preparation, the animals were pretreated with indomethacin (2 mg/kg, 10 min), pyrilamine (2 mg/kg, 6 min) and propranolol (0.1 mg/kg, 5 min) prior to the EA challenge (0.2 mg/kg). All test compounds were administered orally 2 hrs before the EA challenge. Inhibition (%) of bronchoconstriction was determined as follows: Inhibition (%)=(1.0 - % maximum bronchoconstriction in test/% maximum bronchoconstriction in control)×100. The maximum bronchoconstriction was 62±6% (Mean±S.E.M; n=6) and the number of test animals was 5-6.

[1] = Acute toxicity test (lethal ratio, oral); format: in vivo, CD-1(ICR) strain male mice; settings: 1200 mg/kg oral; 7 days after administration; experimental number 5
Procedure: The lethal ratio was determined in CD-1(ICR) strain male mice (5 weeks old) at 7 days after the oral administration of test compounds.

| Structure (SMILES) | inhibition at 1 µg/mL (LTD4) | other results |
| --- | --- | --- |
| CCCOc1cc(CN(C)c2cn[nH]c(=O)c2Cl)ccc1OC [Compound No. 5] | 54% |  |
| CCCCOc1cc(CN(C)c2cn[nH]c(=O)c2Cl)ccc1OC [Compound No. 7] | 50% |  |
| CCCOc1cc(CNc2c([N+](=O)[O-])n[nH]c(=O)c2Cl)ccc1OC [Compound No. 22, 4-chloro-5-(3-n-propoxy-4-methoxybenzylamino)-6-nitro-3(2H)pyridazinone] | 59% |  |
| CCCOc1cc(CNc2c(N)n[nH]c(=O)c2Cl)ccc1OC [Compound No. 23, 4-chloro-5-(3-n-propoxy-4-methoxybenzylamino)-6-amino-3(2H)pyridazinone] | 51% |  |
| CCCCOc1cc(CNc2c(N)n[nH]c(=O)c2Br)ccc1OC [Compound No. 30, 4-bromo-5-(3-n-butoxy-4-methoxybenzylamino)-6-amino-3(2H)pyridazinone] | 38% |  |
| CCCCCCOc1cc(CNc2c([N+](=O)[O-])n[nH]c(=O)c2Br)ccc1OC [Compound No. 33] | 93% |  |
| CCOc1cc(CNc2c(OCC)nn(CC)c(=O)c2Br)ccc1OC [Compound No. 48] | 99% |  |
| CCCOc1cc(CNc2c(OCC)nn(CC)c(=O)c2Cl)ccc1OC [Compound No. 50, 2-ethyl-4-chloro-5-(3-n-propoxy-4-methoxybenzylamino)-6-ethoxy-3(2H)pyridazinone] | 95% |  |
| CCOc1cc(CNc2c(OC(C)C)nn(CC)c(=O)c2Cl)ccc1OC [Compound No. 51] | 94% |  |
| CCOc1cc(CNc2c(OC(C)C)nn(CC)c(=O)c2Br)ccc1OC [Compound No. 52] | 100% |  |
| CCCOc1cc(CNc2c(OC(C)C)nn(CC)c(=O)c2Cl)ccc1OC [Compound No. 53] | 100% |  |
| C=CCOc1nn(CC)c(=O)c(Br)c1NCc1ccc(OC)c(OCC)c1 [Compound No. 56] | 100% | inhibition at 0.1 µg/mL (LTD4): 51% |
| CCCOc1cc(CNc2c(OC(C)C)n[nH]c(=O)c2Cl)ccc1OC [Compound No. 67] | 100% | inhibition at 0.1 µg/mL (LTD4): 82% |
| CCCCOc1cc(CNc2c(OCC)n[nH]c(=O)c2Cl)ccc1OC [Compound No. 68, 4-chloro-5-(3-n-butoxy-4-methoxybenzylamino)-6-ethoxy-3(2H)pyridazinone] | 92% | Inhibition (%) of bronchoconstriction (SRS-A; 10 mg/kg orally): 63%; Inhibition (%) of bronchoconstriction (SRS-A; 30 mg/kg orally): 51%; inhibitory effects over the control (in words) (SRS-A): significant inhibitory effects; Lethal ratio: Death number [1]: 0 |
| CCCCOc1cc(CNc2c(OC(C)C)n[nH]c(=O)c2Cl)ccc1OC [Compound No. 69] | 100% | inhibition at 0.1 µg/mL (LTD4): 83%; Inhibition (%) of bronchoconstriction (SRS-A; 30 mg/kg orally): 52%; inhibitory effects over the control (in words) (SRS-A): significant inhibitory effects; Lethal ratio: Death number [1]: 0 |
| CCCOc1cc(CNc2c(Cl)n[nH]c(=O)c2Cl)ccc1OC [Compound No. 71, 4,6-dichloro-5-(3-n-propoxy-4-methoxybenzylamino)-3(2H)pyridazinone] | 66% |  |
| CCC(C)Oc1n[nH]c(=O)c(Cl)c1NCc1ccc(OC)c(OC)c1 (stereo not drawn) [Compound No. 89] | 96% | inhibition at 0.1 µg/mL (LTD4): 55% |
| CCOc1cc(CNc2c(OC(C)c3ccccc3)n[nH]c(=O)c2Cl)ccc1OC (stereo not drawn) [Compound No. 91] | 100% | inhibition at 0.1 µg/mL (LTD4): 76% |
| CCCSc1n[nH]c(=O)c(Cl)c1NCc1ccc(OC)c(OC)c1 [Compound No. 92, 4-chloro-5-(3,4-dimethoxybenzylamino)-6-n-propylmercapto-3(2H)pyridazinone] | 63% |  |
| CCCc1c(OCC(O)COc2ccc3c(=O)cc(C(=O)O)oc3c2CCC)ccc(C(C)=O)c1O (stereo not drawn) [FPL-55712, reference compound] | 94% | inhibition at 0.1 µg/mL (LTD4): 48% |
| COc1ccc(CN(C)c2cn[nH]c(=O)c2Br)cc1OCCc1ccccc1 [compound 10] | 66% |  |
| CCCOc1cc(CNc2c([N+](=O)[O-])n[nH]c(=O)c2Br)ccc1OC [compound 27] | 72% |  |
| COc1ccc(CNc2c([N+](=O)[O-])n[nH]c(=O)c2Cl)cc1OCCc1ccccc1 [compound 36] | 70% |  |
| CCOc1cc(CNc2c(OC)nn(CC)c(=O)c2Cl)ccc1OC [compound 45] | 50% |  |
| CCOc1cc(CNc2c(OCC)nn(CC)c(=O)c2Cl)ccc1OC [compound 46] | 73% |  |

| Structure (SMILES) | inhibition at 1 µg/mL (LTD4) | other results |
| --- | --- | --- |
| CCOc1cc(CNc2c(OC)nn(CC)c(=O)c2Br)ccc1OC [compound 47] | 79% |  |
| C=CCOc1nn(CC)c(=O)c(Cl)c1NCc1ccc(OC)c(OCCC)c1 [compound 54] | 95% |  |
| C=CCOc1nn(CC)c(=O)c(Cl)c1NCc1ccc(OC)c(OCC)c1 [compound 55] | 81% |  |
| CCCOc1cc(CNc2c(OCCC)nn(CC)c(=O)c2Cl)ccc1OC [compound 57] | 100% | inhibition at 0.1 µg/mL (LTD4): 37% |
| C#CCOc1nn(CC)c(=O)c(Br)c1NCc1ccc(OC)c(OCC)c1 [compound 58] | 100% | inhibition at 0.1 µg/mL (LTD4): 40% |
| CC=CCOc1nn(CC)c(=O)c(Br)c1NCc1ccc(OC)c(OCC)c1 [compound 60] | 100% | inhibition at 0.1 µg/mL (LTD4): 38% |
| C=C(C)COc1nn(CC)c(=O)c(Br)c1NCc1ccc(OC)c(OCC)c1 [compound 61] | 96% |  |
| COc1ccc(CNc2c(OC(C)C)n[nH]c(=O)c2Cl)cc1OC [compound 63] | 92% |  |
| CCOc1cc(CNc2c(OCC)n[nH]c(=O)c2Cl)ccc1OC [compound 64] | 90% |  |
| CCOc1cc(CNc2c(OC(C)C)n[nH]c(=O)c2Cl)ccc1OC [compound 65] | 96% |  |
| CCCOc1cc(CNc2c(OCC)n[nH]c(=O)c2Cl)ccc1OC [compound 66] | 100% | inhibition at 0.1 µg/mL (LTD4): 48% |
| CCOc1cc(CNc2c(Cl)n[nH]c(=O)c2Cl)ccc1OC [compound 70] | 66% |  |
| CCCCCCOc1cc(CNc2c(OC(C)C)n[nH]c(=O)c2Cl)ccc1OC [compound 72] | 75% |  |
| CCOc1cc(CN(C)c2c(OC)nn(CC)c(=O)c2Br)ccc1OC [compound 73] | 100% |  |
| CCOc1cc(CN(C)c2c(OCC)nn(CC)c(=O)c2Br)ccc1OC [compound 74] | 100% |  |
| CCCOc1cc(CNc2c(OCc3ccccc3)nn(CC)c(=O)c2Cl)ccc1OC [compound 75] | 77% |  |
| CCCOc1cc(CNc2c(OCC)nn(C(C)C)c(=O)c2Cl)ccc1OC [compound 77] | 50% |  |
| CCCOc1cc(CNc2c(OC(C)C)nn(C(C)C)c(=O)c2Cl)ccc1OC [compound 78] | 56% |  |
| C=CCOc1nn(C(C)C)c(=O)c(Cl)c1NCc1ccc(OC)c(OCCC)c1 [compound 79] | 79% |  |
| CCOc1cc(CNc2c(OC)n[nH]c(=O)c2Cl)ccc1OC [compound 80] | 100% |  |
| CCOc1n[nH]c(=O)c(Cl)c1NCc1ccc(OC)c(OC)c1 [compound 84] | 59% |  |
| COc1ccc(CNc2c(OCc3ccccc3)n[nH]c(=O)c2Cl)cc1OC [compound 85] | 85% |  |
| CCOc1cc(CNc2c(OCc3ccccc3)n[nH]c(=O)c2Cl)ccc1OC [compound 86] | 100% | inhibition at 0.1 µg/mL (LTD4): 48% |
| COc1ccc(CNc2c(OC(C)c3ccccc3)n[nH]c(=O)c2Cl)cc1OC (stereo not drawn) [compound 90] | 96% | inhibition at 0.1 µg/mL (LTD4): 70% |
| COc1ccc(CNc2c(SCC(C)C)n[nH]c(=O)c2Cl)cc1OC [compound 94] | 68% |  |
